These are literature values, as cited in US8367112B2, “Nanoparticulate carverdilol formulations” (Alkermes Pharma Ireland Limited, priority 2006, dated 2013).

For data set [1] the following is noted: in vivo, po.

Where two headings read alike, the source gives them in different places.

For the molecule `COc1ccccc1OCCNC[C@@H](O)COc1cccc2[nH]c3ccccc3c12` [R(+)-carvedilol], in data set [1], the “apparent mean terminal elimination half-life” value was 5 to 9 h and the “plasma levels relative to S(−)-carvedilol” value is reported as 2-3 times higher.

For `COc1ccccc1OCCNCC(O)COc1cccc2[nH]c3ccccc3c12` (racemic) [carvedilol, (±)-1-(Carbazol-4-yloxy)-3-[[2-(o-methoxyphenoxy)ethyl]amino]-2-propanol], the solubility entry is, setting by setting: (95% ethanol) “sparingly soluble”; (dimethylsulfoxide) “freely soluble”; (ethyl ether) “slightly soluble”; (gastric fluid (simulated, TS, pH 1.1)) “practically insoluble”; (intestinal fluid (simulated, TS without pancreatin, pH 7.5)) “practically insoluble”; (isopropanol) “sparingly soluble”. Moreover, the solubility entry is, setting by setting: (methanol) “soluble”; (methylene chloride) “soluble”; (water) “practically insoluble”.

Regarding `COc1ccccc1OCCNC[C@H](O)COc1cccc2[nH]c3ccccc3c12` (single isomer, unassigned) [S(−)-enantiomer, S(−)-carvedilol], in data set [1], the “apparent mean terminal elimination half-life” value was 7 to 11 h.
